The values below are quoted from earlier work in article PMC10321319 (Nature, 2022).

Converted amounts (≈) assume the structure as drawn. Bounds are passed on as bounds.

The term MIC denotes the least concentration at which growth counts as inhibited.

One data set relates to A. baumannii 0282. The settings on record: XDR A. baumannii 0282, mcr-1 −; ref CDC & FDA Antibiotic Resistant Isolate Bank; cited from earlier work.
For the next data set, the system named is A. baumannii 0301. The settings on record: XDR A. baumannii 0301, mcr-1 −; ref CDC & FDA Antibiotic Resistant Isolate Bank; cited from earlier work.
A further data set relates to A. baumannii 0287. The note with it: XDR A. baumannii 0287, mcr-1 −; ref CDC & FDA Antibiotic Resistant Isolate Bank; cited from earlier work.
The test system of the next data set is A. baumannii 0296. The settings on record: XDR A. baumannii 0296, mcr-1 −; ref CDC & FDA Antibiotic Resistant Isolate Bank; cited from earlier work.
The subject of another data set is A. baumannii 0295. The note with it: XDR A. baumannii 0295, mcr-1 −; ref CDC & FDA Antibiotic Resistant Isolate Bank; cited from earlier work.
For another data set, the system named is A. baumannii 0286. The settings on record: XDR A. baumannii 0286, mcr-1 −; ref CDC & FDA Antibiotic Resistant Isolate Bank; cited from earlier work.

In the case of `CO/N=C(\C(=O)N[C@@H]1C(=O)N2C(C(=O)[O-])=C(C[N+]3(C)CCCC3)CS[C@H]12)c1csc(N)n1` [Cefepime], the MIC with A. baumannii 0282 is more than 32 µg/mL; in the data set with A. baumannii 0301 it was more than 32 µg/mL; in the data set with A. baumannii 0287, 32 µg/mL (≈ 66.6 µM); with A. baumannii 0296, more than 32 µg/mL; in the data set with A. baumannii 0295, more than 32 µg/mL; with A. baumannii 0286, 32 µg/mL (≈ 66.6 µM).

For the molecule `CN(C)[C@@H]1C(O)=C(C(N)=O)C(=O)[C@@]2(O)C(O)=C3C(=O)c4c(O)cccc4[C@@](C)(O)[C@H]3C[C@@H]12` [Tetracycline], the MIC in the data set on A. baumannii 0282 is more than 32 µg/mL; in the data set with A. baumannii 0301 it was more than 32 µg/mL; with A. baumannii 0287, more than 32 µg/mL; in the data set on A. baumannii 0296 it was 32 µg/mL (≈ 72 µM); in the data set on A. baumannii 0295, more than 32 µg/mL; with A. baumannii 0286, more than 32 µg/mL.

Take `C[C@@H](O)[C@H]1C(=O)N2C(C(=O)O)=C(S[C@@H]3CN[C@H](CNS(N)(=O)=O)C3)[C@H](C)[C@H]12` [Doripenem]: the MIC with A. baumannii 0282, with A. baumannii 0301, with A. baumannii 0287, with A. baumannii 0296, in the data set on A. baumannii 0295 and with A. baumannii 0286 was more than 8 µg/mL each time.

Regarding `O=C(O)c1cn(C2CC2)c2cc(N3CCNCC3)c(F)cc2c1=O` [Ciprofloxacin], the MIC in the data set with A. baumannii 0282, in the data set on A. baumannii 0301, with A. baumannii 0287, in the data set with A. baumannii 0296, in the data set with A. baumannii 0295 and in the data set with A. baumannii 0286 was more than 8 µg/mL each time.

With `CN(C)c1ccc(O)c2c1C[C@H]1C[C@H]3[C@H](N(C)C)C(O)=C(C(N)=O)C(=O)[C@@]3(O)C(O)=C1C2=O` [Minocycline], the MIC in the data set with A. baumannii 0282 is 8 µg/mL (≈ 17.5 µM); in the data set on A. baumannii 0301 it was 16 µg/mL (≈ 35 µM); in the data set with A. baumannii 0287 it was “<=4 μg/ml”; with A. baumannii 0296, “<=4 μg/ml”; with A. baumannii 0295, 16 µg/mL (≈ 35 µM); in the data set on A. baumannii 0286 it was 8 µg/mL (≈ 17.5 µM).

Regarding `CN(C)c1cc(NC(=O)CNC(C)(C)C)c(O)c2c1C[C@H]1C[C@H]3[C@H](N(C)C)C(O)=C(C(N)=O)C(=O)[C@@]3(O)C(O)=C1C2=O` [Tigecycline], the MIC with A. baumannii 0301 and in the data set with A. baumannii 0295 was 4 µg/mL (≈ 6.83 µM) throughout.

For `C[C@@H](O)[C@H]1C(=O)N2C(C(=O)O)=C(S[C@@H]3CN[C@H](C(=O)N(C)C)C3)[C@H](C)[C@H]12` [Meropenem], the MIC with A. baumannii 0282, with A. baumannii 0301, in the data set with A. baumannii 0287, in the data set with A. baumannii 0296, with A. baumannii 0295 and with A. baumannii 0286 was more than 8 µg/mL throughout.

Take `CO/N=C(\C(=O)N[C@@H]1C(=O)N2C(C(=O)O)=C(CSc3nc(=O)c(=O)[nH]n3C)CS[C@H]12)c1csc(N)n1` [Ceftriaxone]: the MIC in the data set with A. baumannii 0282, in the data set on A. baumannii 0301, with A. baumannii 0287, in the data set on A. baumannii 0296, with A. baumannii 0295 and in the data set on A. baumannii 0286 was more than 32 µg/mL each time.

On to `NCC[C@H](O)C(=O)N[C@@H]1C[C@H](N)[C@@H](O[C@H]2O[C@H](CN)[C@@H](O)[C@H](O)[C@H]2O)[C@H](O)[C@H]1O[C@H]1O[C@H](CO)[C@@H](O)[C@H](N)[C@H]1O` [Amikacin], for which the MIC in the data set on A. baumannii 0282 is more than 64 µg/mL; in the data set on A. baumannii 0301, 64 µg/mL (≈ 109 µM); in the data set with A. baumannii 0287, 32 µg/mL (≈ 54.6 µM); in the data set with A. baumannii 0296 it was more than 64 µg/mL; in the data set on A. baumannii 0295, 4 µg/mL (≈ 6.83 µM); with A. baumannii 0286, more than 64 µg/mL.

On to `CCN1CCN(C(=O)N[C@@H](C(=O)N[C@@H]2C(=O)N3[C@@H]2SC(C)(C)[C@@H]3C(=O)O)c2ccccc2)C(=O)C1=O` [Piperacillin], for which the MIC in the data set on A. baumannii 0282, with A. baumannii 0301, with A. baumannii 0287, in the data set with A. baumannii 0296, with A. baumannii 0295 and with A. baumannii 0286 was more than 128 µg/mL in each case.

For `C[C@H]1COc2c(N3CCN(C)CC3)c(F)cc3c(=O)c(C(=O)O)cn1c23` [Levofloxacin], the MIC was 8 µg/mL (≈ 22.1 µM) in the data set on A. baumannii 0282; more than 8 µg/mL in the data set on A. baumannii 0301; 8 µg/mL (≈ 22.1 µM) in the data set with A. baumannii 0287; more than 8 µg/mL in the data set on A. baumannii 0296; more than 8 µg/mL with A. baumannii 0295; 8 µg/mL (≈ 22.1 µM) with A. baumannii 0286.

In the case of `COc1cc(Cc2cnc(N)nc2N)cc(OC)c1OC` [Trimethoprim], the MIC in the data set on A. baumannii 0282, in the data set on A. baumannii 0301, in the data set on A. baumannii 0287, in the data set with A. baumannii 0296, in the data set on A. baumannii 0295 and with A. baumannii 0286 was more than 8 µg/mL throughout.

`NC[C@H]1O[C@H](O[C@H]2[C@H](O)[C@@H](O[C@H]3O[C@H](CO)[C@@H](O)[C@H](N)[C@H]3O)[C@H](N)C[C@@H]2N)[C@H](N)C[C@@H]1O` [Tobramycin]: the minimal inhibitory concentration (MIC) in the data set on A. baumannii 0282, in the data set on A. baumannii 0301, in the data set on A. baumannii 0287, in the data set with A. baumannii 0296 and in the data set on A. baumannii 0286 was more than 16 µg/mL each time.

`CO/N=C(\C(=O)N[C@@H]1C(=O)N2C(C(=O)O)=C(COC(C)=O)CS[C@H]12)c1csc(N)n1` [Cefotaxime]: the MIC with A. baumannii 0282, with A. baumannii 0301, with A. baumannii 0287, in the data set with A. baumannii 0296, in the data set with A. baumannii 0295 and with A. baumannii 0286 was more than 64 µg/mL in each case.

Turning to `CNC(C)C1CCC(N)C(OC2C(N)CC(N)C(OC3OCC(C)(O)C(NC)C3O)C2O)O1` (stereo not shown) [Gentamicin], the MIC is more than 16 µg/mL in the data set on A. baumannii 0282; 8 µg/mL (≈ 16.8 µM) in the data set on A. baumannii 0301; 4 µg/mL (≈ 8.38 µM) in the data set with A. baumannii 0287; more than 16 µg/mL in the data set with A. baumannii 0296; 4 µg/mL (≈ 8.38 µM) in the data set on A. baumannii 0295; more than 16 µg/mL with A. baumannii 0286.

On to `CC(C)(O/N=C(\C(=O)N[C@@H]1C(=O)N2C(C(=O)[O-])=C(C[n+]3ccccc3)CS[C@H]12)c1csc(N)n1)C(=O)O` [Ceftazidime], for which the MIC was more than 128 µg/mL with A. baumannii 0282; 128 µg/mL (≈ 234 µM) with A. baumannii 0301; 128 µg/mL (≈ 234 µM) in the data set with A. baumannii 0287; more than 128 µg/mL in the data set with A. baumannii 0296; more than 128 µg/mL in the data set on A. baumannii 0295; 128 µg/mL (≈ 234 µM) in the data set on A. baumannii 0286.

Consider `CC1(C)S[C@@H]2[C@H](NC(=O)[C@H](N)c3ccccc3)C(=O)N2[C@H]1C(=O)O` [Ampicillin], for which the MIC in the data set with A. baumannii 0282 is more than 32 µg/mL; in the data set on A. baumannii 0301 it was more than 32 µg/mL; with A. baumannii 0287 it was more than 32 µg/mL; in the data set on A. baumannii 0296 it was more than 32 µg/mL; with A. baumannii 0295 it was more than 32 µg/mL; with A. baumannii 0286 it was 32 µg/mL (≈ 91.6 µM).

For the molecule `C[C@@H](O)[C@H]1C(=O)N2C(C(=O)O)=C(SCCN=CN)C[C@H]12` [Imipenem], the MIC with A. baumannii 0282 is 64 µg/mL (≈ 214 µM); in the data set on A. baumannii 0301, more than 64 µg/mL; in the data set on A. baumannii 0287, 64 µg/mL (≈ 214 µM); with A. baumannii 0296, 64 µg/mL (≈ 214 µM); in the data set with A. baumannii 0295, more than 64 µg/mL; with A. baumannii 0286 it was more than 64 µg/mL.
